Assay results as given in patent EP0677522A1, “8-METHOXYQUINOLONECARBOXYLIC ACID DERIVATIVE” (priority 1992, dated 1994).
In brackets after ≈: the same amount, converted by molar mass.

Tests used:
Format in all cases: cell-based
Klebsiella pneumoniae DT = experiment: In vitro antibacterial activity (MIC), Japan Society of Chemotherapy Standard; conditions: inoculated cells 10⁶ cells/ml
Summary of the method: (§1)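 Inoculum 10⁶ cells/ml; JSC standard MIC, µg/ml read-out; 10% horse blood added to medium for designated strains.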

[1] = test system: Escherichia coli NIHJ JC-2; experiment: as above; conditions: NIHJJC2, inoculated cells 10⁶ cells/ml
Summary of the method: as §1

[2] = test system: Corynebacterium diphtheriae Tronto; experiment: as above; conditions: inoculated cells 10⁶ cells/ml, medium supplemented with 10% horse blood
Summary of the method: as §1

E. faecalis EFY-204 = experiment: as above; conditions: Enterococcus faecalis, EFY204; quinolone resistant bacteria; inoculated cells 10⁶ cells/ml
Summary of the method: as §1

[3] = test system: Acinetobacter calcoaceticus ATCC 13006; experiment: as above; conditions: ATCC13006, inoculated cells 10⁶ cells/ml
Summary of the method: as §1

S. epidermidis SEY-223 = experiment: as above; conditions: Staphylococcus epidermidis, SEY223; quinolone resistant bacteria; inoculated cells 10⁶ cells/ml
Summary of the method: as §1

[4] = test system: Enterococcus faecalis LS-101; experiment: as above; conditions: LS101, inoculated cells 10⁶ cells/ml
Summary of the method: as §1

E. coli KC-14 = experiment: MIC of the infectious bacteria used for experimental infection; conditions: Escherichia coli, KC14; infectious strain of the mouse protection test
Method: (§2) The in vitro antibacterial activity (minimum inhibitory concentration, MIC, µg/ml) of the test compounds was determined according to Japan Society of Chemotherapy Standard [Chemotherapy, vol. 29, pp 76-79 (1981)].
(§3) Experimental infection was caused by intraperitoneal inoculation of respective bacteria to male mice. One hour after the inoculation, a test compound was orally administered to the mice. The therapeutic effect of each test compound was evaluated by reference to the 50% effective dose (ED₅₀) which was based on the survival ratio at 7 days after the administration according to the probit method [Proc. Soc. Exp. Med., Vol. 57, p 261-264 (1944)]. The minimum inhibitory concentration (MIC) of the infectious bacteria used was also determined. […]

S. aureus MRSA Y-238 = experiment: as above; conditions: Staphylococcus aureus, infectious strain of the mouse protection test
Method: as §2, §3

S. aureus Smith = experiment: as above; conditions: Staphylococcus aureus; infectious strain of the mouse protection test
Method: as §2, §3

CC1COc2c(N3CCN(C)CC3)c(F)cc3c(=O)c(C(=O)O)cn1c23 (stereo not shown) [Comp. Ex. 2, 9-fluoro-2,3-dihydro-3-methyl-10-(4-methyl-1-piperazinyl)-7-oxo-7H-pyrido [1. 2. 3-de) [1.4] benzoxazine-6-carboxylic acid, reference compound]
MIC (Klebsiella pneumoniae DT): 0.1 µg/mL (≈ 0.277 µM)
MIC [1]: 0.05 µg/mL (≈ 0.138 µM)
MIC [2]: 0.39 µg/mL (≈ 1.08 µM)
MIC (E. faecalis EFY-204): 50 µg/mL (≈ 138 µM)
MIC [3]: 0.2 µg/mL (≈ 0.553 µM)
MIC (S. epidermidis SEY-223): > 100 µg/mL
MIC [4]: 0.39 µg/mL (≈ 1.08 µM)
MIC (E. coli KC-14): 0.05 µg/mL
MIC (S. aureus MRSA Y-238): > 100 µg/mL
MIC (S. aureus Smith): 0.05 µg/mL
